Data reported in article PMC8066102, “Metabolic Profiles of New Unsymmetrical Bisacridine Antitumor Agents in Electrochemical and Enzymatic Noncellular Systems and in Tumor Cells” (Pharmaceuticals, 2021).
Read-outs that look alike come from different tables or passages of the source.

Experiments:
UGT2B15 = target: T1, UGT2B15 (Homo sapiens, UniProt P54855); assay: Glucuronidation with recombinant UGT2B15; assay type: in vitro ADME; parameters: key: −: the lack of UGT activity; +: the significant UGT activity; details: 0.05 mM compound, 1 mg/mL UGT, 5 mM UDPGA
T1 construct: purchased Corning, NY, USA (through DIAG-MED, Poland); host or cells: baculovirus-insect cells (Supersomes)
T1 sequence (P54855 24-530): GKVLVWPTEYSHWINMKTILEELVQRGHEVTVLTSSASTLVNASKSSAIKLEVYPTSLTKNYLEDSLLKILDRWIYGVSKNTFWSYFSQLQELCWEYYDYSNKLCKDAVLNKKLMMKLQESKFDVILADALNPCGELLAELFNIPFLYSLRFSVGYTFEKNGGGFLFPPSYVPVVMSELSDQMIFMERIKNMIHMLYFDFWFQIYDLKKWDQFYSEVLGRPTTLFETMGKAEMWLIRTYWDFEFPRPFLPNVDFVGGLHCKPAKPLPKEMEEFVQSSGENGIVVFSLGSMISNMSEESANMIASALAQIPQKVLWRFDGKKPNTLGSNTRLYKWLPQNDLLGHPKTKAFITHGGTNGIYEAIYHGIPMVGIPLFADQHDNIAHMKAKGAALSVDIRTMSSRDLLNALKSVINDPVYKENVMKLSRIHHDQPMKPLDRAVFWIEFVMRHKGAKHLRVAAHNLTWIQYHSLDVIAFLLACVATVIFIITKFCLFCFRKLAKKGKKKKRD
Method: (§1) Recombinant UGT isoform protein (1 mg/mL) was assayed for activity toward tested UAs as follows. The proteins were incubated in a buffer containing 0.1 M HEPES (pH 7.4), 8 mM MgCl2 and alamethicin (25 μg/mL) with either 0.05 mM substrate in total volume 70 µL (alamethicin was added to permeabilize the membrane). Substrates were also in buffer HEPES, pH 7.4. Reactions were started by the addition of UDPGA (5 mM) and were incubated for specified time at 37 °C. The reactions were stopped by the addition of 8.75 µL of 1 M HCl, followed by centrifugation at 13400 rpm for 10 min to pellet the denatured protein. The supernatant fractions were used for HPLC analysis. Control reactions omitting substrate were run with each assay. All incubations were performed in two repetitions.

UGT1A1 = target: T2, UGT1A1 (Homo sapiens, UniProt P22309); assay: Glucuronidation with recombinant UGT1A1; assay type: in vitro ADME; parameters: His tag; purchased Corning, NY, USA (through DIAG-MED, Poland); host or cells: baculovirus-insect cells (Supersomes); Results say Sf9 cells; key: −: the lack of UGT activity; +: the significant UGT activity; details: 0.05 mM compound, 1 mg/mL UGT, 5 mM UDPGA
T2 sequence (P22309 26-533): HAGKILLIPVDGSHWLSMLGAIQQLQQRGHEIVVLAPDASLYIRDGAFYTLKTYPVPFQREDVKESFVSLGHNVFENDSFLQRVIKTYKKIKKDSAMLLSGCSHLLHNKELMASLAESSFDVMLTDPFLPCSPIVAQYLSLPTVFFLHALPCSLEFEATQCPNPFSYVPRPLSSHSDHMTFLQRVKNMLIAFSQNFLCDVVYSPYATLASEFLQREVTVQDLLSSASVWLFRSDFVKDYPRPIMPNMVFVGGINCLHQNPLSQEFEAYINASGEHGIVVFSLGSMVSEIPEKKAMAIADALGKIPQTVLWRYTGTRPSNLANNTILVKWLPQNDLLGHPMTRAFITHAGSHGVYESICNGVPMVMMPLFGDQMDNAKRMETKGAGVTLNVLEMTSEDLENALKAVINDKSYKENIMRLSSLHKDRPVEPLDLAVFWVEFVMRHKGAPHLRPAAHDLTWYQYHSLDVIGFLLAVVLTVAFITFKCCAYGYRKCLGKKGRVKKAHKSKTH
Method: as §1

UGT2B7 = target: T3, UGT2B7 (Homo sapiens, UniProt P16662); assay: Glucuronidation with recombinant UGT2B7; assay type: in vitro ADME; parameters: key: −: the lack of UGT activity; +: the significant UGT activity; details: 0.05 mM compound, 1 mg/mL UGT, 5 mM UDPGA
T3 construct: purchased Corning, NY, USA (through DIAG-MED, Poland); host or cells: baculovirus-insect cells (Supersomes)
T3 sequence (P16662 24-529): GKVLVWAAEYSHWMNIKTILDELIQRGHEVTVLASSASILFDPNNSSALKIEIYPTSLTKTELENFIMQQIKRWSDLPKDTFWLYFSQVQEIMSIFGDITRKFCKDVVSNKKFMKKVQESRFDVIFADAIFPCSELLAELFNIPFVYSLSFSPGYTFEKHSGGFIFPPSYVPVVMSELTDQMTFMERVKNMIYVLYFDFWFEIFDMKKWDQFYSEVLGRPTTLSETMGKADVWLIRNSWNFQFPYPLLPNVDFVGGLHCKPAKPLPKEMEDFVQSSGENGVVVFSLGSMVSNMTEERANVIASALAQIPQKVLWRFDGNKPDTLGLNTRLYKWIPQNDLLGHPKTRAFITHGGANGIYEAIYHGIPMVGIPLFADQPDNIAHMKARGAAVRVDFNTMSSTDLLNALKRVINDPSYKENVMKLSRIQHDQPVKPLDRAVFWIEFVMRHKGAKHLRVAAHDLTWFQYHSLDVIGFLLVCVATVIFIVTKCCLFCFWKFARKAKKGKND
Method: as §1

[1] = pKa determination by spectrophotometric titration; assay type: physicochemical; details: 23 aqueous buffer solutions, pH 1.5-11, pH 1.5, 0.02 mM compound, pH 1.5-11, UV-vis, principal component analysis
Method: The concentration of the compounds in the working solutions was 0.02 mM, pH was changed in the range 1.5–11 at 23 buffer solutions: 1.5–3.5 (interval 0.5 unit—HCl solution), 4.0–5.5 (interval 0.5 unit—acetic buffer), 6.1–7.5 (interval 0.2 unit—PIPES (2-[4-(2-sulphoethyl)piperazine-1-ethanesulphonic acid) buffer), 7.7–8.1 (interval 0.2 unit—HEPES (4-(2-hydroxyethyl)piperazine-1-ethanesulphonic acid) buffer) and 9–11 (interval 1 unit—borate buffer).
PKa values for tested UAs were determined by spectrophotometric titration using a Cary 300 Bio instrument. The UV-vis spectra obtained for all solutions in the examined pH range were subjected to the chemometric technique principal component analysis. This procedure makes it possible to determine the number of spectral forms present in the tested samples and to estimate the mole fractions for each of them. To determine pKa values the relationships between the mole fractions of individual spectral forms and the pH of the samples were used. The first approximation of pKa values have been assigned to the values of pH corresponding to the central points of each titration wave. Numerical optimization by the adjustment of pKa values to the obtained molar fractions allowed to refine these values and the cross-validation procedure let to determine their standard deviations.

Row | Compound | Glucuronidation potency UGT 2B15 (UGT2B15) | Glucuronidation potency UGT 1A1 (UGT1A1) | Glucuronidation potency UGT 2B7 (UGT2B7) | pKa ([1]; read-out: pKa 1) | pKa ([1]; read-out: pKa 2) | pKa ([1]; read-out: pKa 3)
1 | CN(CCCNc1c2ccccc2nc2cccc([N+](=O)[O-])c12)CCCNc1ccc2ncn3c4ccccc4c(=O)c1c23 [C-2028] | − | − | − | 2.22 | 6.01 | 7.41
2 | Cc1ccc([N+](=O)[O-])c2c(NCCCN(C)CCCNc3ccc4ncn5c6ccccc6c(=O)c3c45)c3ccccc3nc12 [C-2053] | − | − | − | 2.19 | 6.19 | 7.49
3 | Cc1ccc([N+](=O)[O-])c2c(NCCCN(C)CCCNc3ccc4ncn5c6ccc(O)cc6c(=O)c3c45)c3ccccc3nc12 [C-2045] | − | + | − | 2.33 | 6.37 | 7.5
